Like-named read-outs stand apart in the source and are kept apart here.
Legend:
SW620 = experiment: CCK-8 cell proliferation assay; assay type: cell-based; details: Homo sapiens, SW-620; SW620, 48 h
Procedure: (§1) The plate was added with 10 μL CCK-8 solution to each well and incubated for 2 h at 37°C. The absorbance was measured at 450 nm using a microtiter plate reader (BioTek).

HT29 = experiment: CCK-8 cell proliferation assay; assay type: cell-based; details: Homo sapiens, HT-29; HT29, 48 h
Procedure: as §1

HCT116 xenograft = HCT116 xenograft model; assay type: in vivo, BALB/c nude mice
Procedure: For the xenograft models, HCT116 cells (5 x 10^6 in 100 μL of PBS) were inoculated subcutaneously into the dorsal flank of the 4-week-old male BALB/c nude mice. The mice were randomly divided into control, drug treatment, IR treatment and combination treatment groups. Control group was injected with PBS. Drug treatment group was treated with 15 mg/kg YZL-51N every 3 d. In IR treatment group, the tumor site was irradiated with 3 Gy every 3 d. The combination group was treated with both 15 mg/kg YZL-51N and 3 Gy IR. The tumor size was estimated from the measurement of the longest diameter across the tumor and the corresponding perpendicular diameter. Tumor volumes were assessed on indicated days by a caliper and calculated using the formula: volume = (length x width[2])/2.

Procedure for HCT116 cells: Cells were seeded into 96 well plates (4,000 cells/well). […] The cells were then washed and re-cultured in fresh medium for 48 h. […] Formazan were generated by the addition of 100 μL DMSO and shaking for 30 min. The absorbance of samples was measured at 570 nm using a microtiter plate reader (BioTek).

IC50 (SW620): 28.6 µM | IC50 (HT29): 47.5 µM
Structure (SMILES): COC(=O)/C(=C\C(=O)c1ccc(O)c(O)c1)c1ccc(O)c(O)c1 [YZL-51N]
Cell proliferation (%, Mean ± SD) (HCT116 cells; single agent 5 μM): 94.8 ± 5.0% | Cell proliferation (%, Mean ± SD) (HCT116 cells; single agent 10 μM): 86.9 ± 5.7% | Cell proliferation (%, Mean ± SD) (HCT116 cells; single agent 20 μM): 76.4 ± 6.0% | Cell proliferation (%, Mean ± SD) (HCT116 cells; single agent 40 μM): 42.8 ± 4.8% | Cell proliferation (%, Mean ± SD) (HCT116 cells; single agent 80 μM): 29.9 ± 5.4% | Cell proliferation (%, Mean ± SD) (HCT116 cells; single agent 160 μM): 17.7 ± 5.3% | Tumor therapy, co-treatment with IR (HCT116 xenograft; 15 mg/kg YZL-51N and 3 Gy IR every 3 days): more effective | Tumor volume (HCT116 xenograft; 15 mg/kg every 3 days, alone): reduction on the tumor volume

— publication PMC11214487, “YZL-51N functions as a selective inhibitor of SIRT7 by NAD^+ competition to impede DNA damage repair” (iScience, 2024)
